Experimental data taken from patent US20230295116A1, “PROTEASOME ENHANCERS AND USES THEREOF” (Board of Trustees of Michigan State University, priority 2020, published 2023).

Tests used:
[1] = biological target: T1, human constitutive 20S proteasome (Homo sapiens, UniProt P25787+P60900); assay: Fluorogenic peptide degradation 20S proteasome activity assay; format: biochemical; details: for AC200 (doubling of 20S activity): combination of the three fluorogenic peptide substrates (CT-L, T-L, Casp-L)
T1 construct: purchased Boston Biochem, Inc. (Cambridge, MA)
Description: These substrates were a chymotryptic-like (CT-L), a trypsin-like (T-L) and a caspase-like (Casp-L) substrate, one for each of the catalytic sites of the proteasome. It has been shown that the proteasome’s active sites allosterically regulate each other in the presence of their individual substrates. Therefore, a combination of the three probes to represent the overall activity of a 20S activator more accurately in a system in which all catalytic sites are interacting.
The 20S activity of astemizoles and N-acylastemizole (compound 2) was further assessed in the fluorogenic peptide assay, using each of the individual substrates as well as the combination of the three (FIG. 1B). […] The N-acylated analog achieved similar max fold increases for each substrate/combination (>800% increase over vehicle).
Activity assays were carried out in a 100 µL reaction volume. Different concentrations (1-80 µM) of test compounds were added to a black flat/clear bottom 96-well plate containing 1 nM of human constitutive 20S proteasome, in 50 mM Tris-HCl at pH 7.8, 100 mM NaCl and allowed to incubate for 15 min at 37° C. Fluorogenic substrates were then added and the enzymatic activity measured at 37° C. on a SpectraMax M5e spectrometer by measuring the change in fluorescence unit per minute for 1 hour at 380-460 nm. The fluorescence units for the vehicle control were set at a 100%, and the ratio of drug-treated sample set to that of vehicle control was used to calculate the fold change in enzymatic activity. The fluorogenic substrates used were one of the following: Suc-LLVY-AMC (CT-L activity, 20 µM), Z-LLE-AMC (Casp-L activity, 20 µM), Boc-LRR-AMC (T-L activity, 40 µM) or a combination of the three substrates each at 6.67 µM.

[2] = test system: NF-kB transcription; assay: NF-κB reporter assay (luciferase); format: cell-based; details: Homo sapiens; HCT-116 NF-kappaB-luc reporter cells, TNF-alpha 2 ng/mL, 16 hours, n=3; read-out: EC50 for inhibition of NF-kB transcription
Procedure: (§1) Firefly luminescence was measured using the One-Step Luciferase Assay System from BPS Biosciences.

[3] = test system: MYC-mediated gene transcription; assay: Myc reporter assay (luciferase); format: cell-based; details: Homo sapiens, HCT-116; HCT116 Myc-Luc reporter cells, 16 hours, n=3; read-out: EC50 for inhibition of c-MYC
Procedure: as §1, §1

## COc1ccc(CCN2CCC(Nc3nc4ccccc4n3Cc3ccc(F)cc3)CC2)cc1 [Compound 1, astemizole, reference compound]
[1]; CT-L, T-L and Casp-L substrates
  activation of catalytic sites of the 20S proteasome: activates all three catalytic sites
[1]
  AC200 (doubling of 20S activity): 3.3 µM

## COc1ccc(CC(=O)N2CCC(Nc3nc4ccccc4n3Cc3ccc(F)cc3)CC2)cc1 [Compound 2, 1-(4-((1-(4-fluorobenzyl)-1H-benzo[d]imidazol-2-yl)amino)piperidin-1-yl)-2-(4-methoxyphenyl)ethan-1-one]
[2]
  EC50: 18 µM
[3]
  EC50: 19 µM
[1]
  AC200 (doubling of 20S activity): 3.9 µM
[1]; each substrate/combination
  max fold increase (increase over vehicle): > 800%
